Active and inactive are the calls of the source.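 The calls were made as follows: active = binding inhibited by at least 50%, or stimulated by at least 50%, shown as inhibition of -50% or lower; inactive = the rest.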
Tests used:
Experiment in all cases: radioligand displacement at 30 receptors – biochemical, Panlabs HitProfilingScreen, selectivity assay for AVPR1a antagonist project, profiling panel (AID 743088)
[1] = target: Alpha-2A adrenergic receptor (Homo sapiens) (UniProt P08913); conditions: 30 targets, Adrenergic alpha2A, at 10 µM, stronger effect = higher value
Calcium Channel L-Type = conditions: 30 targets, Dihydropyridine site, at 10 µM, stronger effect = higher value
[2] = target: Voltage-gated inwardly rectifying potassium channel KCNH2 (Homo sapiens) (UniProt Q12809); conditions: 30 targets, Potassium Channel hERG, at 10 µM, stronger effect = higher value
[3] = target: Muscarinic acetylcholine receptor M2 (Homo sapiens) (UniProt P08172); conditions: 30 targets, at 10 µM, stronger effect = higher value
Glutamate NMDA = conditions: 30 targets, Phencyclidine site, at 10 µM, stronger effect = higher value
[4] = system: Transporter Norepinephrine (NET); conditions: 30 targets, at 10 µM, stronger effect = higher value
Prostanoid EP4 = conditions: 30 targets, at 10 µM, stronger effect = higher value
Adrenergic beta1 = conditions: 30 targets, at 10 µM, stronger effect = higher value
[5] = target: 5-hydroxytryptamine receptor 2B (Homo sapiens) (UniProt P41595); conditions: 30 targets, Serotonin (5-Hydroxytryptamine) 5-HT2B, at 10 µM, stronger effect = higher value
Adrenergic alpha1B = conditions: 30 targets, at 10 µM, stronger effect = higher value
Opiate mu (OP3, MOP) = conditions: 30 targets, at 10 µM, stronger effect = higher value
Adrenergic alpha1A = conditions: 30 targets, at 10 µM, stronger effect = higher value
[6] = target: D(1A) dopamine receptor (Homo sapiens) (UniProt P21728); conditions: 30 targets, Dopamine D1, at 10 µM, stronger effect = higher value
Adenosine A1 = conditions: 30 targets, at 10 µM, stronger effect = higher value
[7] = target: Beta-2 adrenergic receptor (Homo sapiens) (UniProt P07550); conditions: 30 targets, Adrenergic beta2, at 10 µM, stronger effect = higher value
[8] = system: Alpha-2A adrenergic receptor (Homo sapiens) + Histamine H1 receptor (Homo sapiens) + Mu-type opioid receptor (Homo sapiens); conditions: 30 targets, at 10 µM, stronger effect = higher value
Histamine H1 = conditions: 30 targets, at 10 µM, stronger effect = higher value
Adenosine A2A = conditions: 30 targets, at 10 µM, stronger effect = higher value
Dopamine D2 = conditions: 30 targets, at 10 µM, stronger effect = higher value
Nicotinic Acetylcholine = conditions: 30 targets, at 10 µM, stronger effect = higher value
Sodium Channel Site 2 = conditions: 30 targets, at 10 µM, stronger effect = higher value
[9] = target: Muscarinic acetylcholine receptor M3 (Homo sapiens) (UniProt P20309); conditions: 30 targets, at 10 µM, stronger effect = higher value
Sigma 1 = conditions: 30 targets, at 10 µM, stronger effect = higher value
Cannabinoid CB1 = conditions: 30 targets, at 10 µM, stronger effect = higher value
GABAA Central = conditions: 30 targets, at 10 µM, stronger effect = higher value

Chain of Alpha-2A adrenergic receptor (Homo sapiens) (P08913 whole entry, looked up): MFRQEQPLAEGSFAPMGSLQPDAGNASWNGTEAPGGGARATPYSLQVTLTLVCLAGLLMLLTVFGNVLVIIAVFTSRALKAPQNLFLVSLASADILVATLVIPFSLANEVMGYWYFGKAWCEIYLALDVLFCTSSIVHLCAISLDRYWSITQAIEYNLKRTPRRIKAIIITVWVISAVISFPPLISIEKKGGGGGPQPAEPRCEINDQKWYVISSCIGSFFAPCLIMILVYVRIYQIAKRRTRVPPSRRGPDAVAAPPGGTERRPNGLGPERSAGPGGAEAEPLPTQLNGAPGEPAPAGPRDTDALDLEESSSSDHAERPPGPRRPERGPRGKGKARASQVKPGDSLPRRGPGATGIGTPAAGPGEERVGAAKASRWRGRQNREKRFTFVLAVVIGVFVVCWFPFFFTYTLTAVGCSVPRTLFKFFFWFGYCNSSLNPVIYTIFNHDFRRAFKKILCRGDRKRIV
Chain of Voltage-gated inwardly rectifying potassium channel KCNH2 (Homo sapiens) (Q12809 whole entry, looked up): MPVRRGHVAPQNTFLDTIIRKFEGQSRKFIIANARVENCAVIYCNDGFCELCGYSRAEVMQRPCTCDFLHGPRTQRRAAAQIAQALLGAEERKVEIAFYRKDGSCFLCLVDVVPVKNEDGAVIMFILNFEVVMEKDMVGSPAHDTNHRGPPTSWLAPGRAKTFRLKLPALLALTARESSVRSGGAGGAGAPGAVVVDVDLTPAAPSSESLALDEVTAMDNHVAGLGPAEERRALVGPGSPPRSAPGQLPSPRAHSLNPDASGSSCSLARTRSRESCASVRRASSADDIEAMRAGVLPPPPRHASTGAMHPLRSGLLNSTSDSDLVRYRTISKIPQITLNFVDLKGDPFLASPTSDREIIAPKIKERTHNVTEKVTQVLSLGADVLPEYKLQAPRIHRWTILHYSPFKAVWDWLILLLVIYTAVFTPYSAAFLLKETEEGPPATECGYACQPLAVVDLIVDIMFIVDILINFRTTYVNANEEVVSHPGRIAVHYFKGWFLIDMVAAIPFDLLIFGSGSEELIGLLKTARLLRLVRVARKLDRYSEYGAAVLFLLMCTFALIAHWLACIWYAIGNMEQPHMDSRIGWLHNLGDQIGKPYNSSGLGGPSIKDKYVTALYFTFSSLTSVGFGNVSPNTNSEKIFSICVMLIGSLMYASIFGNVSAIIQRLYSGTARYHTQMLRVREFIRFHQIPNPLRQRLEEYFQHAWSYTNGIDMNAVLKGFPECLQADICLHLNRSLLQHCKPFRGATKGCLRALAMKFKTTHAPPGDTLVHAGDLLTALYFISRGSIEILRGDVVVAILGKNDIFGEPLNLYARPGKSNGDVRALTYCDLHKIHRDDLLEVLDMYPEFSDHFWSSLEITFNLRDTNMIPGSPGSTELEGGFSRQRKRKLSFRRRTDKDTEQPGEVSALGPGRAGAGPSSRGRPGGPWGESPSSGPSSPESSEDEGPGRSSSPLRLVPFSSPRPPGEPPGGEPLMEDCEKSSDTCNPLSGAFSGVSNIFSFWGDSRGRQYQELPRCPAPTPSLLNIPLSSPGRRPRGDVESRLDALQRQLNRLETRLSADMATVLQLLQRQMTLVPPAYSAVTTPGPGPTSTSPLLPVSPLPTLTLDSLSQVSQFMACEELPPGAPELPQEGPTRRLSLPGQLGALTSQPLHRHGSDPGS
Chain of 5-hydroxytryptamine receptor 2B (Homo sapiens) (P41595 whole entry, looked up): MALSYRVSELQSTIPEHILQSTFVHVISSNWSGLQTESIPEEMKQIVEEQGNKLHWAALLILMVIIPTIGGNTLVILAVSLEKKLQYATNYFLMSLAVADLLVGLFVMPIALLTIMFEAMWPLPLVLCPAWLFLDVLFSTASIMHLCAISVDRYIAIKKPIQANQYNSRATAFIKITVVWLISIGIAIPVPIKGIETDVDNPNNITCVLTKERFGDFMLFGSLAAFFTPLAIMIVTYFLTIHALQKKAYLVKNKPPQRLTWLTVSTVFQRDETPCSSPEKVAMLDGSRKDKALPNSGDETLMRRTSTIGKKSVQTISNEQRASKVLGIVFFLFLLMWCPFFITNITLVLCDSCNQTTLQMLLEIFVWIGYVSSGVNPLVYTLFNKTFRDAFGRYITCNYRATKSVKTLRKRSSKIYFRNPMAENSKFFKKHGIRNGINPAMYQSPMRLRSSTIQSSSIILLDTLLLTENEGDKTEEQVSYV
Chain of Muscarinic acetylcholine receptor M3 (Homo sapiens) (P20309 whole entry, looked up): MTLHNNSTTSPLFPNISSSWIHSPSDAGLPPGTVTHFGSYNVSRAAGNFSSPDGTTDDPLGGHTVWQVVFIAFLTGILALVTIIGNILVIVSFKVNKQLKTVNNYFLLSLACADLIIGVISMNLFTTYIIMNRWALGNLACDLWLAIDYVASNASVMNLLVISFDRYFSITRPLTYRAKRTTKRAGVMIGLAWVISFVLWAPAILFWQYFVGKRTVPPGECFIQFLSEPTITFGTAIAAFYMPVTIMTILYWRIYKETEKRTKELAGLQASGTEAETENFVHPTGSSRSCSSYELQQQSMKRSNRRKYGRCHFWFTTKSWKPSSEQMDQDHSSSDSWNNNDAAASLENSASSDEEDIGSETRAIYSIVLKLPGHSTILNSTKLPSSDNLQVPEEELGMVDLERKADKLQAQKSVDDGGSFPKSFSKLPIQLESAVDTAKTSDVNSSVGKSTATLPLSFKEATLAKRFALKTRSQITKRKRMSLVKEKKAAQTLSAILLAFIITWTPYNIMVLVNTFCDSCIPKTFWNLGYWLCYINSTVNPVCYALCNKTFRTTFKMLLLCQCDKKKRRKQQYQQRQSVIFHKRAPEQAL
Chain of D(1A) dopamine receptor (Homo sapiens) (P21728 whole entry, looked up): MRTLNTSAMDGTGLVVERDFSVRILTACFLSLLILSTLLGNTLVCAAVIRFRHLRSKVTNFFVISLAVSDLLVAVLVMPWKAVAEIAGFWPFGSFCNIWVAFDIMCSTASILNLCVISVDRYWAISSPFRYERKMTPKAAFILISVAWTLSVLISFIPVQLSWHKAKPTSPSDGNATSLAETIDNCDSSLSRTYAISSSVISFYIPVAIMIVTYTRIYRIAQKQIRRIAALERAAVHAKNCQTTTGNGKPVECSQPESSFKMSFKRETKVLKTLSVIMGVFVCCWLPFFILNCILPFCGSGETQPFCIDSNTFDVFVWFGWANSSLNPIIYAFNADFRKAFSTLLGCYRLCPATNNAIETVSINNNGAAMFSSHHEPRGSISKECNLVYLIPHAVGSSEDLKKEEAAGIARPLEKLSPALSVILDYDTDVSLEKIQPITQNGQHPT
Chain of Beta-2 adrenergic receptor (Homo sapiens) (P07550 whole entry, looked up): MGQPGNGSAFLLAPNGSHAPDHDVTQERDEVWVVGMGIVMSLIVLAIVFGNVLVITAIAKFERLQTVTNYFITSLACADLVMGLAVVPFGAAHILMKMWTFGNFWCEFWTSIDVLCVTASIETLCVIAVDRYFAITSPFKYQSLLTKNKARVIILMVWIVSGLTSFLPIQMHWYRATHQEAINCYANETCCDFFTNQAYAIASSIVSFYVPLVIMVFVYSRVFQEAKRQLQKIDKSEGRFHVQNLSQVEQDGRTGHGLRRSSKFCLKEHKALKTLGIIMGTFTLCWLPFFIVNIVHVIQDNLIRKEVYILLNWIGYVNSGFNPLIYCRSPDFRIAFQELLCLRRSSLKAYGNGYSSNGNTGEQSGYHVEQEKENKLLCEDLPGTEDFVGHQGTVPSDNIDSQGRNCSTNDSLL
Chain of Muscarinic acetylcholine receptor M2 (Homo sapiens) (P08172 whole entry, looked up): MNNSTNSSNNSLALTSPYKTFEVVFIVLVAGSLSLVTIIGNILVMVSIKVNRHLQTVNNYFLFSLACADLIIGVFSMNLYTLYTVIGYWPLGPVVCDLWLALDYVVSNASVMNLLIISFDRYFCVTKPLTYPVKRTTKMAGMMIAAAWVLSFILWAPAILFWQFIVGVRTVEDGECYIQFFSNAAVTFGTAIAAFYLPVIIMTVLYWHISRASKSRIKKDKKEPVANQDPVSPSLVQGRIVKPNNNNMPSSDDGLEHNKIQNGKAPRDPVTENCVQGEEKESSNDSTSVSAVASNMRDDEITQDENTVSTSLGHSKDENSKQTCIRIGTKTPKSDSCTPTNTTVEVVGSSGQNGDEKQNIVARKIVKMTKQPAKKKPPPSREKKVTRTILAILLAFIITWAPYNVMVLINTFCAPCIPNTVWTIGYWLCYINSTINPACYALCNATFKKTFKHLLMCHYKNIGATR

## O=C(C1CCN(c2ccc(Cl)cn2)CC1)N(CC1CC1)c1ccc(Cl)cc1
[1]
  inhibition of binding: 8% (inactive)
Calcium Channel L-Type
  inhibition of binding: 44% (inactive)
[2]
  inhibition of binding: 22% (inactive)
[3]
  inhibition of binding: -5% (inactive)
Glutamate NMDA
  inhibition of binding: 5% (inactive)
[4]
  inhibition of binding: 47% (inactive)
Prostanoid EP4
  inhibition of binding: 31% (inactive)
Adrenergic beta1
  inhibition of binding: 12% (inactive)
[5]
  inhibition of binding: 36% (inactive)
Adrenergic alpha1B
  inhibition of binding: -15% (inactive)
Opiate mu (OP3, MOP)
  inhibition of binding: 23% (inactive)
Adrenergic alpha1A
  inhibition of binding: 23% (inactive)
[6]
  inhibition of binding: -6% (inactive)
Adenosine A1
  inhibition of binding: -4% (inactive)
[7]
  inhibition of binding: 5% (inactive)
[8]
  inhibition of binding: 6% (inactive)
Histamine H1
  inhibition of binding: 12% (inactive)
Adenosine A2A
  inhibition of binding: 7% (inactive)
Dopamine D2
  inhibition of binding: 1% (inactive)
Nicotinic Acetylcholine
  inhibition of binding: -15% (inactive)
Sodium Channel Site 2
  inhibition of binding: 35% (inactive)
[9]
  inhibition of binding: -2% (inactive)
Sigma 1
  inhibition of binding: 61%
Cannabinoid CB1
  inhibition of binding: 48% (inactive)
GABAA Central; Flunitrazepam site
  inhibition of binding: -6% (inactive)
GABAA Central; Muscimol site
  inhibition of binding: 7% (inactive)

From PubChem BioAssay AID743088 (The Scripps Research Institute Molecular Screening Center, 2013)
